{"source": "patent US5663197A", "about": "“2-(1-hydroxyethyl)-5-hydroxynaphtho[2,3-b]furan-4,9-dione and antitumor agents comprising this compound” (priority 1992, dated 1997)", "tested_on": "carcinogenic promotion (skin papillomas in mice)", "assay": "Inhibition of two-step skin carcinogenesis in mice skin", "assay_type": "in vivo, mouse (female ICR)", "settings": "DMBA initiator, TPA promoter, 20 weeks; FIG. 28 (NFD 85 nmol), FIG. 29 (lapacoal)", "description": "Female ICR mice were used as test animals. Fifteen mice were housed in a cage and kept on a commercial pellet diet and drinking water ad libitum until the end of the experiment. The mice were purchased at their age of six-week-old. Dorsal hair of mice was shaved, and next day, 390 nmol of 7,12-dimethylbenz(a)anthracene (DMBA) in 0.1 ml acetone was applied, as an initiator, on the shaved back. One week later, 1.7 nmol of 12-O-tetradecanoylphorbol-13-acetate (TPA) in 0.1 ml acetone was applied, as a promoter, to the same place twice a week. This procedure was repeated for 20 weeks.\nMice were observed once a week for the number of papillomas larger than 1 mm, and the experimental results were given as the percentage of papilloma-bearing mice in each group and the number of papillomas per mouse."}
{"compound": "CC(C)=CCC1=C(O)C(=O)c2ccccc2C1=O", "note": "[lapacoal, reference compound]", "values": [{"measurement": "inhibitory effect on carcinogenic promotion in skin", "result": "inhibitory effect"}]}
